For experiment [1], the target named is T1, Gasdermin-D (Homo sapiens) (UniProt P57764).
T1 sequence (whole entry): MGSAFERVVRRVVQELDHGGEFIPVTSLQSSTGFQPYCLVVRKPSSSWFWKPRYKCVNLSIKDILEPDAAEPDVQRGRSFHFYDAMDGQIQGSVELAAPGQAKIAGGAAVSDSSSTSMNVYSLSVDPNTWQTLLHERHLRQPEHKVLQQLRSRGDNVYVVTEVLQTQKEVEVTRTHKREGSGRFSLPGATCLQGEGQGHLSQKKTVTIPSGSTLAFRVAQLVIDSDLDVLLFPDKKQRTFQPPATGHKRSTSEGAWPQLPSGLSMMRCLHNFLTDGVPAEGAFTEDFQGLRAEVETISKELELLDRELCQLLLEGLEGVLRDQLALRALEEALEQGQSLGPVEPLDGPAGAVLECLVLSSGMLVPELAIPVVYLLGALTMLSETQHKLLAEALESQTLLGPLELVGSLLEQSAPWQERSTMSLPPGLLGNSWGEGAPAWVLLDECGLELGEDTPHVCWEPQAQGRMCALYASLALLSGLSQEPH
Briefly: Inhibition of GSDMD in LPS-induced human monocyte/macrophages assessed as inhibition of pyroptosis by fluorogenic liposome leakage assay. Conditions: concentration not given here.

The target of experiment [2] is T2, Gasdermin-D (Mus musculus) (UniProt Q9D8T2).
T2 sequence (whole entry): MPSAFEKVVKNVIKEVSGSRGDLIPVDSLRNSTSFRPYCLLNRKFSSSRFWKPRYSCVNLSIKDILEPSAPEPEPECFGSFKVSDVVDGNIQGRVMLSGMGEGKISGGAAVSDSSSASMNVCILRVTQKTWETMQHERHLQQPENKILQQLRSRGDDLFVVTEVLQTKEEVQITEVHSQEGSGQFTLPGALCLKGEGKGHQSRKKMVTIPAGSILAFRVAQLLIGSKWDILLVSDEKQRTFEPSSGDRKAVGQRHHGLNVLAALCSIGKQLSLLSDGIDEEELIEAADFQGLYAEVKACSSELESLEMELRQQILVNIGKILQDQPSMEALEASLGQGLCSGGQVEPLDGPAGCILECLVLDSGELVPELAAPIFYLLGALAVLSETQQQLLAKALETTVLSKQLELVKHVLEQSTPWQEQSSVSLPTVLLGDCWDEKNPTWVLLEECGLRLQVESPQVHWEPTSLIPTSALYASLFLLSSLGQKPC
Briefly: Inhibition of GSDMD in LPS-induced mouse monocyte/macrophages assessed as inhibition of pyroptosis by fluorogenic liposome leakage assay. The note with it: concentration not given here.

The target of experiment [3] is T2, Gasdermin-D (Mus musculus). Briefly: Inhibition of mouse GSDMD expressed in HEK293 cells assessed as inhibition of GSDMD -induced lethality. The experiment is classed as cell-based.
Experiment [4] has as its target T1, Gasdermin-D (Homo sapiens). The experiment is described as follows: Inhibition of human GSDMD expressed in HEK293 cells assessed as inhibition of GSDMD -induced lethality. It is filed as cell-based.

The values below come from ChEMBL document CHEMBL4321782, “Gasdermin D (GSDMD) as a new target for the treatment of infection” (Medchemcomm, 2019).

Residues, ends and D or L forms follow the SMILES beside them. *: point of attachment. Cbz = O=C(OCc1ccccc1)*; CH2F = FC*

With `Cc1ccc(S(=O)(=O)/C=C/C#N)cc1`, the inhibition in experiment [1] and in experiment [2] was more than 50% throughout.

Regarding `COc1ccccc1-c1cc2n(n1)Cc1ccc(NC(C)=O)cc1OC2`, the INH stood at 5 µM in experiment [3] and 1 µM in experiment [4].

As for `CC(C)[C@H](NC(=O)OCc1ccccc1)C(=O)N[C@@H](C)C(=O)N[C@@H](CC(=O)O)C(=O)CF` (Cbz-Val-Ala-Asp-CH2F), the inhibition in experiment [1] and in experiment [2] was more than 50% throughout.
